The target of the test is 5-HT1A receptor (Bos taurus). Description: In vitro inhibition of [3H]5-HT (2 nM) binding to 5-hydroxytryptamine 1A receptor from bovine hippocampus.

As for `[N-]=[N+]=Nc1ccc(CCN2CCN(c3cccc(C(F)(F)F)c3)CC2)cc1I`, the IC50 is 0.035 µM.

As usually defined, the IC50 is the concentration at which inhibition is half-maximal. Higher therefore signals lower potency.

Values taken from BindingDB's records for doi:10.1021/jm00123a006 (University of Pennsylvania, 1989).
